# Source: US4096174A, “Anionic naphthalene thioureido-diphenyloxides” (American Cyanamid Company, priority 1977, dated 1978)
# Counter-ions that a name gives are not always drawn.
# What was measured:
# [1] = test system: late components of human complement (C3-C9); test: Test, Code 035 (C3-C9 inhibitor), lysis of EAC 142; format: biochemical; settings: two-fold serial dilution assay; higher well number indicates higher activity
# Excerpt: An active inhibitor protects C2 from C1 and C4; (ii) Test, Code 035 (C3-C9 inhibitor) - This test determines the ability of the late components of human complement (C3-C9) to lyse EAC 142 in the presence of appropriate dilutions of the test compound. An active inhibitor protects EAC 142 from lysis by human C3-C9; (iii) Test, Code 036 (C-Shunt inhibitor) - In this test human erythrocytes rendered fragile are lysed in autologous serum via the shunt pathway activated by cobra venom factor in the presence of appropriate dilutions of the test compound. Inhibition of the shunt pathway results in failure of lysis; (iv) Forssman Vasculitis Test - Here, the well known complement dependent lesion, Forssman Vasculitis, is produced in guinea pigs by intradermal injection of rabbit anti-Forssman antiserum. […]
# whole complement = test: Complement Level Reduction Test (in vivo, capillary tube assay of serum); design: species or system guinea pig; settings: 200 mg/kg
compound,measurement,setting,value
"O=S(=O)(O)c1cc(NC(=S)Nc2ccc(Oc3ccc(NC(=S)Nc4cc(S(=O)(=O)O)cc5cc(S(=O)(=O)O)cc(S(=O)(=O)O)c45)c(NC(=S)Nc4cc(S(=O)(=O)O)cc5cc(S(=O)(=O)O)cc(S(=O)(=O)O)c45)c3)cc2NC(=S)Nc2cc(S(=O)(=O)O)cc3cc(S(=O)(=O)O)cc(S(=O)(=O)O)c23)c2c(S(=O)(=O)O)cc(S(=O)(=O)O)cc2c1 [8,8',8"",8'""-{Oxybis[4,1,2-phenylbis(2-thioureylene)]}-tetra-1,3,6-naphthalenetrisulfonic acid dodecasodium salt]",C-Late 035 Wells,[1],+2 Wells
same,In Vivo Activity (Guinea Pig) % Inhibition,"whole complement; Intraperitoneal, 30 minutes",-82%
same,In Vivo Activity (Guinea Pig) % Inhibition,"whole complement; Intraperitoneal, 60 minutes",-88%
same,In Vivo Activity (Guinea Pig) % Inhibition,"whole complement; Intraperitoneal, 120 minutes",-94%
same,In Vivo Activity (Guinea Pig) % Inhibition,"whole complement; Intravenous, 2 minutes",-98%
same,In Vivo Activity (Guinea Pig) % Inhibition,"whole complement; Intravenous, 30 minutes",-95%
same,In Vivo Activity (Guinea Pig) % Inhibition,"whole complement; Intravenous, 120 minutes",-91%
